# Molecular target: Apoptosis regulator Bcl-2 (Homo sapiens, UniProt P10415)
# Experiment: FP values were measured as described above.
# Sequence of Apoptosis regulator Bcl-2 (P10415 whole entry): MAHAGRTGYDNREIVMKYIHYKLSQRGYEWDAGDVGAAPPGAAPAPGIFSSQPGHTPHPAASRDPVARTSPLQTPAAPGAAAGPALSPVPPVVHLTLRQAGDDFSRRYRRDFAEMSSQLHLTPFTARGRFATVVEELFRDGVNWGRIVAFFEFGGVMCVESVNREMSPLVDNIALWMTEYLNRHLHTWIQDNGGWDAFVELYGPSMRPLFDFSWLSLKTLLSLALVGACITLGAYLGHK
smiles,measurement,value
O=C(NS(=O)(=O)c1cc([N+](=O)[O-])c2cnn(CC3CCOCC3)c2c1)c1ccc(N2CCN(CC3=C(c4ccc(Cl)cc4)CC4(CCC4)CC3)CC2)cc1Oc1cnc2[nH]ccc2c1,IC50,1.6 nM

# Source: ChEMBL document CHEMBL5726656, “N-(phenylsulfonyl)benzamides and related compounds as BCL-2 inhibitors” (2019)
